Assay [1] has as its target T1, hFASN enzyme (full length) (Homo sapiens, UniProt P49327).
T1 construct: 10 μL hFASN enzyme (full length, 300 ng, purified in house); made in house
The assay is described as follows: Fatty Acid Synthase (FASN) inhibition scintillation proximity assay. It is filed as biochemical. The following applies: for inhibition at 10 µM: read-out: Human FASN % inhibition @ 10 μM, 10 μM test compound; for IC50: read-out: Human FASN pIC50 (converted). In a few lines:
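Compounds at 0.01–30 μM were mixed with 300 ng purified full-length enzyme in 100 mM KH2PO4 pH 7.5, 1 mM DTT. Substrates ³H-acetyl-CoA and malonyl-CoA were then converted, and bead addition stopped the reaction. Signal was normalised to low and high plate controls and fitted by 4-parameter nonlinear regression.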

For assay [2], the system named is A2780 ovarian cells. The assay can be described thus: A2780 ovarian cell proliferation assay in lipid reduced medium, with palmitate (MTT). It is filed as cell-based. The following applies: Homo sapiens, A2780, 96 h; read-out: pIC50 A2780 Ovarian Cell, With Palmitate (converted). In a few lines: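 Seeded cells were switched next day to lipid-reduced serum, exposed to compound and 25 μM palmitate complexed with fatty-acid-free BSA, and incubated 96 h. Proliferation was then determined by MTT absorbance at 544 nm, with a best-fit curve of signal against concentration.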

Assay [3] concerns A2780 ovarian cells. The assay can be described thus: A2780 ovarian cell proliferation assay in lipid reduced medium, without palmitate (MTT). It is filed as cell-based. The following applies: Homo sapiens, A2780, 96 h; read-out: pIC50 A2780 Ovarian Cell, Without Palmitate (converted).
For assay [4], the system named is PC-3M-Luc-C6 prostate cells. The assay can be described thus: In vitro PC-3M-Luc-C6 prostate cell proliferation assay in lipid reduced medium. It is filed as cell-based. The following applies: 96 h, read-out: pIC50 PC-3M-Luc-C6 prostate cell (converted). How it is done: PC-3M-Luc-C6 prostate cells were obtained from Xenogen Corporation. Cells were maintained in MEM supplemented with 10% Fetal Calf Serum (FCS, Hyclone), 2 mM glutamine, 1 mM sodium pyruvate, 1% BME vitamins (available from for example, Sigma Aldrich), 0.1 mM non Essential Amino Acid and 50 μg/ml Gentamicin. The cells were passaged twice a week.
The next day 10 μl test compound/DMSO diluted in medium was added (3E-5M, 1E-5M, 3E-6M, 1E-6M, 3E-7M, 1E-7M, 3E-8M, 1E-8M final concentration). Compounds were tested in duplicate. After 96 h incubation at 37° C., 5% CO2 25 μl ATP-glow mix was added. The plate was incubated for 30 min at 37° C. and luminescence was measured with the Envision.
Analysis: Determination of pIC50 Values
pIC50 values were calculated as follows.
where mLC and mHC are the means of the low control wells and high control wells on the plate, after manual exclusion of outliers. The relation between the % Controlmin values and concentration was fitted to a 4-parameter logistic curve using a non-linear least squares regression method to determine the pIC50 value. Outlying data points were excluded manually to get a correct fit. The pIC50 corresponds to −log 10(IC50), if the IC50 is expressed in molar units (http://www.ncbi.nlm.nih.gov/books/NBK91994). The IC50 parameter was always determined by non-linear regression, but one or more of the other parameters may have been held fixed on a relevant input value, such as 0 for the bottom values.

Assay [5] deals with Fatty Acid Synthase Keto-reductase Domain (FASN KR) (Homo sapiens, UniProt P49327). The assay is described as follows: Fatty Acid Synthase keto-reductase domain (FASN KR) inhibition, NADPH oxidation at 340 nm.
Description: After 20 minutes incubation at room temperature the plate was measured again (T2).
The decrease in absorbance was calculated as (Absorbance before incubation T1)−(Absorbance following incubation T2).
A plot of Controlmin versus test compound concentration was fitted to a 4-parameter logistic curve using a non-linear least squares regression method.
Assay [6] has as its system LNCaP-Vancouver prostate cells. The assay can be described thus: In vitro LNCaP Vancouver prostate cell proliferation assay in lipid reduced medium. It is filed as cell-based. Particulars: read-out: pIC50 LNCaP_Vancouver prostate cell (converted).

Fatty Acid Synthase Keto-reductase Domain (FASN KR), sequence (P49327 whole entry, the tested form may be a part): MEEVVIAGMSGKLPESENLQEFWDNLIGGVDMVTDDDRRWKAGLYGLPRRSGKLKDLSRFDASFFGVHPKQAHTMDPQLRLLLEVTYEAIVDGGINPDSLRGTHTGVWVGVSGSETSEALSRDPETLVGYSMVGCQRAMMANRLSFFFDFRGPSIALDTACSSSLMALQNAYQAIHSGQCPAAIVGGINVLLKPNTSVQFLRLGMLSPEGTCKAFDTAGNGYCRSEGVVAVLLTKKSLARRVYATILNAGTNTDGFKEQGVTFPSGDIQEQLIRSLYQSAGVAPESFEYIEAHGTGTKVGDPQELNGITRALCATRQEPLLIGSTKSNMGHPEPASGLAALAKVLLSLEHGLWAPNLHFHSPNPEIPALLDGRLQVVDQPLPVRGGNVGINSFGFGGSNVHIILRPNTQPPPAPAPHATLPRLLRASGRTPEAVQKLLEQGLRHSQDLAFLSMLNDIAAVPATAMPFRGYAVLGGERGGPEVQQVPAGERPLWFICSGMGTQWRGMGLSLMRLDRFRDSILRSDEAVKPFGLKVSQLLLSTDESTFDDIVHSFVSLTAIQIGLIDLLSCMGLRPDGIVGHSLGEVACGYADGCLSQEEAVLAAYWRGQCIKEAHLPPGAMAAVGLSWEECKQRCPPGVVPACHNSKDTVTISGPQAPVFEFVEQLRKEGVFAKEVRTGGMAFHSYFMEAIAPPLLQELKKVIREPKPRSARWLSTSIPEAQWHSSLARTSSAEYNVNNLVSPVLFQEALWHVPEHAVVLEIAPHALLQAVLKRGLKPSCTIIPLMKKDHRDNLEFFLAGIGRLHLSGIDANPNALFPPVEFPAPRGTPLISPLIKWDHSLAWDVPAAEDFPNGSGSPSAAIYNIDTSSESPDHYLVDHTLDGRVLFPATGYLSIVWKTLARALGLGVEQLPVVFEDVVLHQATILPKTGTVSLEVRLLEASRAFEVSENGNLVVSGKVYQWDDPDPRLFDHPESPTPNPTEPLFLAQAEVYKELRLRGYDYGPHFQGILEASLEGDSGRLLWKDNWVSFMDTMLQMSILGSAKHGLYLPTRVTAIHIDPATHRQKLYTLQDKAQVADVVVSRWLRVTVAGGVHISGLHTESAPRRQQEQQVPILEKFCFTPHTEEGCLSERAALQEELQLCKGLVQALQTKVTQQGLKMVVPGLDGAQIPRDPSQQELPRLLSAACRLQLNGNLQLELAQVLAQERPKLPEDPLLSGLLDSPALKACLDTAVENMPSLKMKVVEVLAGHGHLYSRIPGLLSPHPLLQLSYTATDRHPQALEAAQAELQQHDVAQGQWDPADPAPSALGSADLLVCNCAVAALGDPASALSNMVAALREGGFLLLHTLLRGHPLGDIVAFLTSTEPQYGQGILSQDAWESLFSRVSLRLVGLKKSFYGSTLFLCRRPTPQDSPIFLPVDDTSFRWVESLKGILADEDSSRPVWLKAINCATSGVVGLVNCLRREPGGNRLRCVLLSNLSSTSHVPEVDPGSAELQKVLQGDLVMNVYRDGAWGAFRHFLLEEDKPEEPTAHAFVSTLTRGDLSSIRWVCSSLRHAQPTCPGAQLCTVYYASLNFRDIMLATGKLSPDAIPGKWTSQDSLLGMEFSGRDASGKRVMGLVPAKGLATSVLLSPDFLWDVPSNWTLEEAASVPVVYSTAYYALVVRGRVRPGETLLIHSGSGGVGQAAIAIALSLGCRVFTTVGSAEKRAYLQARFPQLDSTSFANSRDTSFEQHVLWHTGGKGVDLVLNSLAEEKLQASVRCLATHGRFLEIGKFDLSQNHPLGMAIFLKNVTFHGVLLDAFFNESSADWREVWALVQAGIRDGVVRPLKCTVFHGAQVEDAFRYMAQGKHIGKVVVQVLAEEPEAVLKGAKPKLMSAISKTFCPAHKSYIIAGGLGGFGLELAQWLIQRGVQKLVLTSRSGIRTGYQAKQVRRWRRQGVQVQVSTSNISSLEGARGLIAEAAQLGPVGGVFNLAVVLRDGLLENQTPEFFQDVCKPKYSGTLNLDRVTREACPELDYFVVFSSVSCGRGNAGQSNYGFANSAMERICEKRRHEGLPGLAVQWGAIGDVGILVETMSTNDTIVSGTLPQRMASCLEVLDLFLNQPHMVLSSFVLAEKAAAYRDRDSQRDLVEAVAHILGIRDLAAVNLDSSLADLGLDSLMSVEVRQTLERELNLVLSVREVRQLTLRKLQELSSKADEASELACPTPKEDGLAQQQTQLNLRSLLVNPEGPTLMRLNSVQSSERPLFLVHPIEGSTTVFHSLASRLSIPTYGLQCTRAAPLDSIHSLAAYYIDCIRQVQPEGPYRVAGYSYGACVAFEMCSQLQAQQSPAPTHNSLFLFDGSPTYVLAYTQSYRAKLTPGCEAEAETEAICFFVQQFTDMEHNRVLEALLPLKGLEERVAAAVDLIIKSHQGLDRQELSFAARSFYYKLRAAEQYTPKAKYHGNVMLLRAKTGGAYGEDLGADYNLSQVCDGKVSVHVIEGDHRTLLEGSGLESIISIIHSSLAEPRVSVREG
T1 sequence (P49327 whole entry): as the sequence (P49327 whole entry, the tested form may be a part) above

One may read the inhibition as the change of the read-out against control, counted positive when it falls. With `O=C(C1CC1)N1CC[C@@H](CN2C(=O)C3(CCCC3)N=C2c2ccc(-c3ccc4occc4c3)cc2)C1` [compound 2, 2-[4-(1-Benzofuran-5-yl)phenyl]-3-{[(3R)-1-(cyclopropylcarbonyl)pyrrolidin-3-yl]methyl-}3-diazaspiro[4.4]non-1-en-4-one], the inhibition at 10 µM in assay [1] stood at 109%. The IC50 was 45.7 nM in assay [1]; more than 10000 nM in assay [2]; 977 nM in assay [3]; approximately 661 nM in assay [4]; 89.1 nM in assay [5].

`Cc1cc2cc(-c3ccc(C4=NC5(CC5)C(=O)N4CC4CN(C(=O)C5CC5)C4)c(C)c3)ccc2[nH]1` [compound 263, 6-((1-(cyclopropanecarbonyl)azetidin-3-yl)methyl)-5-(2-methyl-4-(2-methyl-1H-indol-5-yl)phenyl)-4,6-diazaspiro[2.4]hept-4-en-7-one]: the inhibition at 10 µM in assay [1] came out at 105%. In addition, the IC50 in assay [1] is 51.3 nM; in assay [2], more than 10000 nM; in assay [3] it was 120 nM; in assay [4], 112 nM; in assay [5], 251 nM.

Take `O=C(C1CC1)N1CC[C@@H](CN2C(=O)C3(CC3)N=C2c2ccc(-c3cccc(NS(=O)(=O)C4CC4)c3)cc2F)C1` [compound 318]: the inhibition at 10 µM in assay [1] worked out at 100%. In addition, the IC50 in assay [1] is 66.1 nM; in assay [2] it was more than 10000 nM; in assay [3] it was approximately 70.8 nM; in assay [4] it was 52.5 nM; in assay [5], 123 nM.

`Cn1ncc2cc(-c3ccc(C4=NC5(CC5)C(=O)N4C[C@@H]4CCN(C(=O)C5CC5)C4)cc3F)ccc21` [compound 405, 6-{[(3R)-1-(Cyclopropylcarbonyl)pyrrolidin-3-yl]methyl}-5-[3-fluoro-4-(1-methyl-1H-indazol-5-yl)phenyl]-4,6-diazaspiro[2.4]hept-4-en-7-one]: the IC50 in assay [2] was more than 10000 nM; in assay [3], 479 nM; in assay [4], 457 nM.

With `O=C(C1CC1)N1CC(CN2C(=O)C3(CC3)N=C2c2ccc(-c3ccc4cc[nH]c4c3)c(F)c2)C1` [compound 442, 6-{[1-(Cyclopropylcarbonyl)azetidin-3-yl]methyl}-5-[3-fluoro-4-(1H-indol-6-yl)phenyl]-4,6-diazaspiro[2.4]hept-4-en-7-one], the inhibition at 10 µM in assay [1] is 94%. Moreover, the IC50 in assay [1] was 200 nM; in assay [2], more than 10000 nM; in assay [3], 257 nM; in assay [4], 513 nM; in assay [5] it was 339 nM.

Regarding `Cc1cc(-c2ccc3c(cnn3C)c2)ccc1C1=NC2(CC2)C(=O)N1CC1CN(C(=O)C2(O)CC2)C1` [compound 498, 6-({1-[(1-Hydroxycyclopropyl)carbonyl]-azetidin-3-yl}methyl)-5-[2-methyl-4-(1-methyl-1H-indazol-5-yl)phenyl]-4,6-diazaspiro[2.4]hept-4-en-7-one], in assay [1], the inhibition at 10 µM was found to be 99%. For the same compound, in assay [4], the IC50 was 234 nM.

Turning to `Cn1cc2cc(-c3ccc(C4=NC5(CC5)C(=O)N4CC4CN(C(=O)C5CC5)C4)c(F)c3)ccc2n1` [compound 644, 6-{[1-(Cyclopropylcarbonyl)azetidin-3-yl]methyl}-5-[2-fluoro-4-(2-methyl-2H-indazol-5-yl)phenyl]-4,6-diazaspiro[2.4]hept-4-en-7-one], in assay [1], the inhibition at 10 µM came out at 97%. The IC50 is 178 nM in assay [1]; more than 10000 nM in assay [2]; 162 nM in assay [3]; 2820 nM in assay [6]; 1450 nM in assay [5].

On to `N#Cc1ccc2sc(-c3ccc(C4=NC5(CC5)C(=O)N4CC4CN(C(=O)C5CC5)C4)c(F)c3)nc2c1` [compound 652, 2-[4-(6-{[1-(Cyclopropylcarbonyl)azetidin-3-yl]methyl}-7-oxo-4,6-diazaspiro[2.4]hept-4-en-5-yl)-3-fluorophenyl]-1,3-benzothiazole-5-carbonitrile], for which the inhibition at 10 µM in assay [1] worked out at 97%. The IC50 in assay [1] was 186 nM; in assay [2], more than 6170 nM; in assay [3], 174 nM; in assay [6], 1200 nM; in assay [5], 347 nM.

Take `O=C(C1CC1)N1CC[C@@H](CN2C(=O)C3(CCOCC3)N=C2c2ccc(-c3ccc4occc4c3)cc2)C1` [compound 667, 2-[4-(1-Benzofuran-5-yl)phenyl]-3-{[(3R)-1-(cyclopropylcarbonyl)pyrrolidin-3-yl]methyl}-8-oxa-1,3-diazaspiro[4.5]dec-1-en-4-one]: the inhibition at 10 µM in assay [1] was 97%. In addition, the IC50 was 155 nM in assay [1]; more than 10000 nM in assay [2]; approximately 1000 nM in assay [3]; 1780 nM in assay [6]; 339 nM in assay [5].

With `O=C([C@H]1CCCO1)N1CC(CN2C(=O)C3(CCOC3)N=C2c2ccc(-c3ccc4cccnc4c3)cc2)C1` (stereo partly drawn) [compound 716, 2-(4-Quinolin-7-ylphenyl)-3-({1-[(2R)-tetrahydro-furan-2-ylcarbonyl]azetidin-3-yl}methyl)-7-oxa-1,3-diazaspiro[4.4]non-1-en-4-one], the inhibition at 10 µM in assay [1] is 88%. For the same compound, the IC50 was 398 nM in assay [1]; more than 10000 nM in assay [2]; 513 nM in assay [3]; 5500 nM in assay [6]; 1050 nM in assay [5].

Take `CC(C)N1CCC2(CC1)N=C(c1ccc(-c3ccc4[nH]ccc4c3)cc1)N(C[C@@H]1CCN(C(=O)C3CC3)C1)C2=O` [compound 744, 3-{[(3R)-1-(Cyclopropylcarbonyl)pyrrolidin-3-yl]methyl}-2-[4-(1H-indol-5-yl)phenyl]-8-(1-methylethyl)-1,3,8-triazaspiro[4.5]dec-1-en-4-one]: in assay [1], the inhibition at 10 µM was 98%. The IC50 is 115 nM in assay [1]; more than 10000 nM in assay [2]; approximately 214 nM in assay [3]; 851 nM in assay [6]; 251 nM in assay [5].

Consider `CS(=O)(=O)N1CCC2(CC1)N=C(c1ccc(-c3ccc4[nH]ccc4c3)cc1)N(C[C@@H]1CCN(C(=O)C3CC3)C1)C2=O` [compound 745, 3-{[(3R)-1-(Cyclopropylcarbonyl)pyrrolidin-3-yl]methyl}-2-[4-(1H-indol-5-yl)phenyl]-8-(methylsulfonyl)-1,3,8-triazaspiro[4.5]dec-1-en-4-one], for which the inhibition at 10 µM in assay [1] is 104%. Moreover, the IC50 in assay [1] is 70.8 nM; in assay [2], more than 10000 nM; in assay [3], 95.5 nM; in assay [6] it was 851 nM; in assay [5] it was 158 nM.

`O=C(C1CC1)N1CC[C@@H](CN2C(=O)C3(CCN(C(=O)C(F)(F)F)CC3)N=C2c2ccc(-c3ccc4[nH]ccc4c3)cc2)C1` [compound 751, 3-{[(3R)-1-(Cyclopropylcarbonyl)pyrrolidin-3-yl]methyl}-2-[4-(1H-indol-5-yl)phenyl]-8-(trifluoroacetyl)-1,3,8-triazaspiro[4.5]dec-1-en-4-one]: in assay [1], the inhibition at 10 µM was found to be 98%. The IC50 in assay [1] was 135 nM; in assay [2] it was more than 10000 nM; in assay [3] it was 89.1 nM; in assay [6] it was 724 nM; in assay [5], 166 nM.

Regarding `O=C(C1CC1)N1CC[C@@H](CN2C(=O)C3(CCCC3)N=C2c2ccc(-c3cnc4[nH]ccc4c3)cc2F)C1` [compound 881, (R)-3-((1-(cyclopropanecarbonyl)pyrrolidin-3-yl)methyl)-2-(2-fluoro-4-(1H-pyrrolo[2,3-b]pyridin-5-yl)phenyl)-1,3-diazaspiro[4.4]non-1-en-4-one], in assay [1], the inhibition at 10 µM was 101%. Moreover, the IC50 was 107 nM in assay [1]; more than 10000 nM in assay [2]; 240 nM in assay [3]; 1320 nM in assay [6]; 316 nM in assay [5].

(Values after US10077261B2, “Imidazolin-5-one derivative useful as FASN inhibitors for the treatment of cancer” (Janssen Pharmaceutica NV, priority 2012, dated 2018).)
